Measured values taken from patent US6855801B1, “Peptides modulating activities of heparin other glycosaminoglycans or proteoglycans” (Thomas Jefferson University, priority 1999, dated 2005).

Tests used:
unfractionated heparin [1] = test: Reversal of anti-Factor Xa activity in vitro (Stachrom Heparin chromogenic assay), unfractionated heparin; format: biochemical, human; conditions: peptide 0.6 mg/ml in plasma; 0.5 U/ml anti-Factor Xa activity
Protocol: (§1) Solutions of Lovenox, Orgaran, or unfractionated heparin (Sigma) were prepared in 0.32% sodium citrate or in normal human plasma to contain 0.5 U/ml anti-FXa activity. Calibrations were made against the standards provided by the Stachrom Heparin (Diagnostica Stago) assay kit. The heparin/ATIII complex was allowed to form at 37° C. for 2 minutes, peptide was added, the mixture was incubated for an additional 1-5 minutes, and then Factor Xa was added, and finally the color reagent, for one minute, and the absorbance was read at 405 nm. The increase in absorbance from the heparinized control to the test sample was divided by the difference in A405 between the heparinized control and the control without heparin to obtain the % reversal.

[2] = Affinity coelectrophoresis (ACE) of radiolabeled heparin through peptides; format: binding, pig; conditions: ACE, low Mr heparin
From the text: Preparation of Radiolabeled Heparin—Whole heparin from pig intestinal mucosa (Sigma) was tyramine end-labeled and radiolabeled with Na^125I (Amersham, Pharmacia Biotech, Inc., Piscataway, N.J.) to an average specific activity ≅1.0×10^7 CPM/μg as described^59. Radiolabeled heparin was fractionated on Sephadex G-100 (Bio-Rad Laboratories, Hercules, Calif.) and the final ≅12% of material to elute was retained as the low Mr material of ≦6,000 (Jordan, R., D. Beeler, and R. Rosenberg, J Biol Chem, 254:2902-2913, 1979; Laurent, T. C., et al., Biochem J, 175:691-701, 1978).
Briefly, peptides were dissolved in 1×ACE running buffer, 50 mM sodium 3-(N-morpholino)-2-hydroxypropanesulfonate (MOPSO, Sigma)/125 mM sodium acetate, pH 7.0, and serially diluted in running buffer at 2× concentrations. Peptides were then mixed 1:1 with 2% agarose/1% CHAPS, 3-[(3-cholamidopropyl)dimethylammonio]-1-propanesulfonate, (Boehringer Mannheim, Indianapolis, Ind.), and loaded into wells of a 1% agarose gel. Radiolabeled heparin or HUVEC PGs were then loaded in a slot on the […] side of the gel, and electrophoresed through the peptide-containing wells, towards the cathode. Gels were dried and PG mobility was measured with a Phosphorimager (Molecular Dynamics, Sunnyvale, Calif.) by scanning each protein lane and determining the relative radioactivity content per. 88-μm pixel through the length of the lane. Retardation coefficient (R) measurements, binding isotherm curve fittings, and apparent Kd value determinations were calculated as detailed previously (Lee, M. K., and A. D. Lander, Proc Nat Acad Sci USA, 88:2768-2772, 1991; San Antonio, J. D., et al, Biochem, 32:47464755, 1993).
Some peptides were also analyzed by ACE for heparin-binding under reducing conditions. Thus, after serial peptide dilution, β-mercaptoethanol (β-ME) was added at 5% to each peptide sample, and these were mixed 1:1 with 2% agarose/1% CHAPS/5% β-ME, and added to the ACE gel sample wells as usual.

Lovenox = test: Reversal of anti-Factor Xa activity in vitro (Stachrom Heparin chromogenic assay), Lovenox; format: biochemical, human; conditions: peptide 0.6 mg/ml in plasma; 0.5 U/ml anti-Factor Xa activity
Protocol: as §1

Orgaran = test: Reversal of anti-Factor Xa activity in vitro (Stachrom Heparin chromogenic assay), Orgaran; format: biochemical, human; conditions: peptide 0.6 mg/ml in plasma; 0.5 U/ml anti-Factor Xa activity
Protocol: as §1

unfractionated heparin [3] = test: Reversal of anti-thrombin effects of unfractionated heparin in vitro (thrombin clotting time in plasma); format: biochemical, human; conditions: heparin 0.5 U/ml; thrombin standardized to clotting time 20-22 seconds
Protocol: Plasma was obtained from normal donors. Thrombin concentration (human alpha thrombin, Enzyme Research Laboratories, South Bend, Ind.) was standardized to produce a clotting time of 20-22 seconds. Heparin was added at 0.5 IU anti-thrombin activity/ml. The clotting time for heparin alone was approximately 3 minutes. To test the effects of the peptides in this system, one minute after addition of heparin to the plasma, the peptides were added in concentrations ranging from 1-200 μg/ml. After one minute, thrombin was added and the clotting time determined. The effects of the peptides were concentration dependent. The clotting time was restored to normal values in all samples at the dosages shown below in Table III. The ability of the peptides to neutralize heparin inhibition of thrombin clotting time was consistent with the binding affinities shown in Table I, and with the effectiveness against low molecular weight heparin anti-Factor Xa activity in Table II.

Sequence | Percent Reversal of anti-Factor Xa Activity, Heparin (unfractionated) (unfractionated heparin [1]) [%] | heparin-binding affinity in words [2] | Percent Reversal of anti-Factor Xa Activity, Lovenox (Lovenox) [%] | Percent Reversal of anti-Factor Xa Activity, Orgaran (Orgaran) [%] | μg peptide/ml heparinized plasma needed to normalize thrombin time (unfractionated heparin [3])
AKKARAAKKARA [(AKKARA)2, XBBXBX tandem repeat peptide] | 67.0 | weak | 61.5 | 37.0 | >50 μg peptide/ml heparinized plasma
AKKARAAKKARAAKKARAAKKARA [(AKKARA)4, XBBXBX tandem repeat peptide] | 99 | moderate | 73 | 75 | 10 μg peptide/ml heparinized plasma
